Target: T1, Caspase-1 (Homo sapiens, UniProt P29466)
T1 sequence (P29466 whole entry): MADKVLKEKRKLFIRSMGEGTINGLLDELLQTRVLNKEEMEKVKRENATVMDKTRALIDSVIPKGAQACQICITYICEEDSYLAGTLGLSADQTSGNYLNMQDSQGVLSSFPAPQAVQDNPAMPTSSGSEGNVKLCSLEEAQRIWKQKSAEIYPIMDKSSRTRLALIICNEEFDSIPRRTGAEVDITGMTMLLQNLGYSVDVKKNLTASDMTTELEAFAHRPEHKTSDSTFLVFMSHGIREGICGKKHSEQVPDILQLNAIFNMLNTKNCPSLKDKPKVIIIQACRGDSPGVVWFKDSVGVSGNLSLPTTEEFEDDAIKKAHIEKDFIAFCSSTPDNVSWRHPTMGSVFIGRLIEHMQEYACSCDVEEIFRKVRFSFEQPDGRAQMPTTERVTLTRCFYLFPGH
Assay: The compound was tested for inhibition of IL-1 beta converting enzyme in whole human blood.

Molecule `CC(=O)N[C@@H](Cc1ccc(O)cc1)C(=O)N[C@H](C(=O)N[C@@H](C)C(=O)N[C@H](C=O)CC(=O)O)C(C)C` has a Ki of 0.76 nM.

From ChEMBL document CHEMBL1126427, “Synthesis of a potent, reversible inhibitor of interleukin-1 converting enzyme” (Bioorg Med Chem Lett, 1992)
